Test results published in PubChem BioAssay AID256 (DTP/NCI, 2004).
Values joined by “and” are separate entries in the source; they are usually repeats but may differ in a detail not shown here. Equal values may be shown once. Inconclusive results and toxic doses are left out.

Test system: CD2F1 mice, L1210 leukemia ip, survival T/C
Test: NCI In Vivo Anticancer Drug Screen. Data for tumor model L1210 Leukemia (intraperitoneal) in CD2F1 (CDF1) mice
Conditions: higher = longer survival
Summary of the method: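 Implant tumor; dose compound or vehicle; measure endpoint in both groups; report treated divided by control.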

[1] = endpoint: mean survival time, dose: 6.25 mg/kg/injection, schedule: Q01DX009 (ip), vehicle: Klucel (hydroxypropylcellulose) (HPC)
[2] = endpoint: mean survival time, dose: 12.5 mg/kg/injection, schedule: Q01DX009 (ip), vehicle: Klucel (hydroxypropylcellulose) (HPC)
[3] = endpoint: mean survival time, dose: 25.0 mg/kg/injection, schedule: Q01DX009 (ip), vehicle: Klucel (hydroxypropylcellulose) (HPC)
[4] = endpoint: mean survival time, dose: 50.0 mg/kg/injection, schedule: Q01DX009 (ip), vehicle: Klucel (hydroxypropylcellulose) (HPC)
[5] = endpoint: mean survival time, dose: 100.0 mg/kg/injection, schedule: Q01DX009 (ip), vehicle: Klucel (hydroxypropylcellulose) (HPC)
[6] = endpoint: mean survival time, dose: 200.0 mg/kg/injection, schedule: Q01DX009 (ip), vehicle: Klucel (hydroxypropylcellulose) (HPC)
[7] = endpoint: mean survival time, dose: 100.0 mg/kg/injection, schedule: Q01DX001 (ip), vehicle: saline
[8] = endpoint: mean survival time, dose: 100.0 mg/kg/injection, schedule: Q04DX003 (ip), vehicle: saline with Tween-80
[9] = endpoint: mean survival time, dose: 200.0 mg/kg/injection, schedule: Q04DX003 (ip), vehicle: saline with Tween-80
[10] = endpoint: mean survival time, dose: 400.0 mg/kg/injection, schedule: Q04DX003 (ip), vehicle: saline with Tween-80
[11] = endpoint: mean survival time, dose: 25.0 mg/kg/injection, schedule: Q01DX001 (ip), vehicle: saline
[12] = endpoint: mean survival time, dose: 200.0 mg/kg/injection, schedule: Q01DX001 (ip), vehicle: saline
[13] = endpoint: mean survival time, dose: 400.0 mg/kg/injection, schedule: Q01DX001 (ip), vehicle: saline
[14] = endpoint: mean survival time, dose: 100.0 mg/kg/injection, schedule: Q04DX002 (ip), vehicle: saline with Tween-80
[15] = endpoint: mean survival time, dose: 200.0 mg/kg/injection, schedule: Q04DX002 (ip), vehicle: saline with Tween-80

`CCCCCC[C@H]([C@H](C)O)n1cnc2c(N)ncnc21` was tested, and the T/C (endpoint: mean survival time, dose: 0.38 mg/kg/injection, schedule: Q03HX024 (ip), vehicle: saline with Tween-80) was 92 % of control, the T/C (endpoint: mean survival time, dose: 0.57 mg/kg/injection, schedule: Q03HX024 (ip), vehicle: saline with Tween-80) was 96 % of control and the T/C (endpoint: mean survival time, dose: 1.3 mg/kg/injection, schedule: Q03HX024 (ip), vehicle: saline with Tween-80) was 102 % of control. The T/C (endpoint: mean survival time, dose: 2.0 mg/kg/injection, schedule: Q03HX024 (ip), vehicle: saline with Tween-80) was 98 % of control, the T/C (endpoint: mean survival time, dose: 3.0 mg/kg/injection, schedule: Q03HX024 (ip), vehicle: saline with Tween-80) was 96 % of control and the T/C (endpoint: mean survival time, dose: 4.5 mg/kg/injection, schedule: Q03HX024 (ip), vehicle: saline with Tween-80) was 98 % of control. The T/C (endpoint: mean survival time, dose: 5.0 mg/kg/injection, schedule: Q03HX024 (ip), vehicle: saline with Tween-80) was 104 % of control, the T/C [1] was 95 % of control and 100 % of control and the T/C (endpoint: mean survival time, dose: 10.0 mg/kg/injection, schedule: Q03HX024 (ip), vehicle: saline with Tween-80) was 107 % of control. The T/C [2] was 98 % of control and 100 % of control, the T/C [3] was 100 % of control and 101 % of control and the T/C (endpoint: mean survival time, dose: 25.0 mg/kg/injection, schedule: Q03HX024 (ip), vehicle: saline with Tween-80) was 105 % of control. For the same molecule, the T/C [4] was 97 % of control and 100 % of control, the T/C (endpoint: mean survival time, dose: 50.0 mg/kg/injection, schedule: Q03HX024 (ip), vehicle: saline with Tween-80) was 105 % of control and the T/C [5] was 95 % of control and 100 % of control. For the same molecule, the T/C (endpoint: mean survival time, dose: 100.0 mg/kg/injection, schedule: Q03HX024 (ip), vehicle: saline with Tween-80) was 96 % of control, the T/C [6] was 100 % of control and the T/C (endpoint: median survival time, dose: 25.0 mg/kg/injection, schedule: Q01DX009 (ip), vehicle: Klucel (hydroxypropylcellulose) (HPC)) was 96 % of control. For the same molecule, the T/C (endpoint: median survival time, dose: 50.0 mg/kg/injection, schedule: Q01DX009 (ip), vehicle: Klucel (hydroxypropylcellulose) (HPC)) was 101 % of control and the T/C (endpoint: median survival time, dose: 100.0 mg/kg/injection, schedule: Q01DX009 (ip), vehicle: Klucel (hydroxypropylcellulose) (HPC)) was 97 % of control.
`CN(CC1CCCC1)C1CCCCC1` was tested, and the T/C [7] was 98 % of control.
For `Cc1ccc(C(OS(=O)(=O)c2ccc(C)cc2)C(F)(F)F)cc1` (stereo unspecified), the T/C (endpoint: mean survival time, dose: 100.0 mg/kg/injection, schedule: Q01DX001 (ip), vehicle: saline with Tween-80) was 104 % of control, the T/C [8] was 107 % of control and the T/C (endpoint: mean survival time, dose: 200.0 mg/kg/injection, schedule: Q01DX001 (ip), vehicle: saline with Tween-80) was 108 % of control. The T/C [9] was 101 % of control, the T/C (endpoint: mean survival time, dose: 400.0 mg/kg/injection, schedule: Q01DX001 (ip), vehicle: saline with Tween-80) was 106 % of control and the T/C [10] was 98 % of control.
With `O=S(=O)(c1ccccc1)C(Cl)Cl` the T/C (endpoint: mean survival time, dose: 100.0 mg/kg/injection, schedule: Q04DX003 (ip), vehicle: other) was 95 % of control, the T/C (endpoint: mean survival time, dose: 200.0 mg/kg/injection, schedule: Q04DX003 (ip), vehicle: other) was 100 % of control and the T/C (endpoint: mean survival time, dose: 400.0 mg/kg/injection, schedule: Q04DX003 (ip), vehicle: other) was 100 % of control.
For `O=C1Nc2ccccc2/C1=C\c1ccccc1O`, the T/C [4] was 93 % of control, the T/C [5] was 87 % of control and the T/C [6] was 96 % of control. For the same molecule, the T/C (endpoint: mean survival time, dose: 400.0 mg/kg/injection, schedule: Q01DX009 (ip), vehicle: Klucel (hydroxypropylcellulose) (HPC)) was 96 % of control.
For `CN1C(/C(C(=O)C(F)(F)F)=C(\O)C(F)(F)F)=NCc2ccccc21`, the T/C (endpoint: mean survival time, dose: 100.0 mg/kg/injection, schedule: Q04DX003 (ip), vehicle: Klucel (hydroxypropylcellulose) (HPC)) was 102 % of control, the T/C (endpoint: mean survival time, dose: 200.0 mg/kg/injection, schedule: Q04DX003 (ip), vehicle: Klucel (hydroxypropylcellulose) (HPC)) was 98 % of control and the T/C (endpoint: mean survival time, dose: 400.0 mg/kg/injection, schedule: Q04DX003 (ip), vehicle: Klucel (hydroxypropylcellulose) (HPC)) was 98 % of control.
In the case of `CCN(CC)c1ccc(C)cc1Cl`, the T/C (endpoint: mean survival time, dose: 100.0 mg/kg/injection, schedule: Q04DX003 (ip), vehicle: saline sonified) is reported as 102 % of control.
For `NC(=O)c1ncn(CCCCCO)c1N`, the T/C (endpoint: mean survival time, dose: 100.0 mg/kg/injection, schedule: Q01DX001 (ip), vehicle: other) was 91 % of control, the T/C (endpoint: mean survival time, dose: 200.0 mg/kg/injection, schedule: Q01DX001 (ip), vehicle: other) was 103 % of control and the T/C (endpoint: mean survival time, dose: 400.0 mg/kg/injection, schedule: Q01DX001 (ip), vehicle: other) was 101 % of control.
For `CCCCSC(=N)N`, the T/C [11] was 100 % of control, the T/C (endpoint: mean survival time, dose: 50.0 mg/kg/injection, schedule: Q01DX001 (ip), vehicle: saline) was 105 % of control and the T/C [7] was 113 % of control.
`CC1(C)SCNC1C(=O)O` (stereo unspecified) was tested, and the T/C [7] was 96 % of control, the T/C [12] was 100 % of control and the T/C [13] was 94 % of control.
In the case of `C/C(=C/Cc1c(O)c(C)c2c(c1O)C(=O)OC2)CCC(=O)NCCc1ccccc1`, the T/C [14] is reported as 87 % of control, the T/C [15] is reported as 87 % of control and the T/C (endpoint: mean survival time, dose: 400.0 mg/kg/injection, schedule: Q04DX002 (ip), vehicle: saline with Tween-80) is reported as 96 % of control.
For `COc1ccc(C2=CSc3ccccc3N2)cc1`, the T/C [14] was 96 % of control and the T/C [15] was 104 % of control.
In the case of `N#CCCC(C#N)(CCC#N)C(N)=O`, the T/C [8] is reported as 98 % of control, the T/C [9] is reported as 98 % of control and the T/C [10] is reported as 107 % of control.
`C=CCCCCCCCCC(=O)N1CCOCC1` was tested, and the T/C (endpoint: mean survival time, dose: 100.0 mg/kg/injection, schedule: Q04DX002 (ip), vehicle: saline) was 97 % of control.
For `COC(=O)N1c2ccc(C)cc2C=CC1C#N` (stereo unspecified), the T/C (endpoint: mean survival time, dose: 100.0 mg/kg/injection, schedule: Q01DX009 (ip), vehicle: saline with Tween-80) was 95 % of control, the T/C [8] was 102 % of control and the T/C (endpoint: mean survival time, dose: 200.0 mg/kg/injection, schedule: Q01DX009 (ip), vehicle: saline with Tween-80) was 100 % of control. The T/C [9] was 105 % of control, the T/C (endpoint: mean survival time, dose: 400.0 mg/kg/injection, schedule: Q01DX009 (ip), vehicle: saline with Tween-80) was 95 % of control and the T/C [10] was 90 % of control.
In the case of `ClCC(CCl)c1nncc2ccccc12`, the T/C [7] is reported as 94 % of control, the T/C [12] is reported as 97 % of control and the T/C [13] is reported as 93 % of control.
`O=C(O)C(F)(F)C(F)(F)C(F)(F)C(F)=C(F)F` was tested, and the T/C (endpoint: mean survival time, dose: 75.0 mg/kg/injection, schedule: Q01DX001 (ip), vehicle: saline) was 103 % of control and the T/C (endpoint: mean survival time, dose: 150.0 mg/kg/injection, schedule: Q01DX001 (ip), vehicle: saline) was 101 % of control.
`CCS(=O)(=O)OCCCNCCCOS(=O)(=O)CC` was tested, and the T/C (endpoint: mean survival time, dose: 12.5 mg/kg/injection, schedule: Q01DX001 (ip), vehicle: saline) was 103 % of control, the T/C [11] was 105 % of control and the T/C [7] was 160 % of control. The T/C [12] was 186 % of control.
With `CN(Cc1cnc2nc(N)nc(N)c2n1)c1ccc(C(=O)NC(CCC(=O)O)C(=O)NC(CC(=O)O)C(=O)O)cc1` (stereo unspecified) the T/C (endpoint: mean survival time, dose: 1.0 mg/kg/injection, schedule: Q01DX009 (ip), vehicle: sodium bicarbonate) was 100 % of control, the T/C (endpoint: mean survival time, dose: 2.0 mg/kg/injection, schedule: Q01DX009 (ip), vehicle: sodium bicarbonate) was 111 % of control and the T/C (endpoint: mean survival time, dose: 5.0 mg/kg/injection, schedule: Q01DX009 (ip), vehicle: sodium bicarbonate) was 121 % of control. The T/C (endpoint: mean survival time, dose: 50.0 mg/kg/injection, schedule: Q01DX009 (ip), vehicle: sodium bicarbonate) was 105 % of control.
In the case of `C1CCC2OCCOCCOC3CCCCC3OCCOCCOC2C1` (stereo unspecified), the T/C (endpoint: mean survival time, dose: 3.12 mg/kg/injection, schedule: Q01DX009 (ip), vehicle: Klucel (hydroxypropylcellulose) (HPC)) is reported as 108 % of control, the T/C [1] is reported as 98 % of control and 103 % of control and the T/C [2] is reported as 87 % of control and 100 % of control. For the same molecule, the T/C [3] was 102 % of control and 103 % of control, the T/C [4] was 100 % of control and 104 % of control and the T/C [5] was 91 % of control.
`CC1(C)CC(O)(Cc2ccccc2)C(=O)c2ccccc21` (stereo unspecified) was tested, and the T/C (endpoint: mean survival time, dose: 25.0 mg/kg/injection, schedule: Q01DX009 (ip), vehicle: water) was 95 % of control, the T/C (endpoint: mean survival time, dose: 50.0 mg/kg/injection, schedule: Q01DX009 (ip), vehicle: water) was 92 % of control and the T/C (endpoint: mean survival time, dose: 100.0 mg/kg/injection, schedule: Q01DX009 (ip), vehicle: water) was 95 % of control. For the same molecule, the T/C (endpoint: mean survival time, dose: 200.0 mg/kg/injection, schedule: Q01DX009 (ip), vehicle: water) was 95 % of control and the T/C (endpoint: mean survival time, dose: 400.0 mg/kg/injection, schedule: Q01DX009 (ip), vehicle: water) was 97 % of control.
In the case of `Nc1nc2c(c(=O)[nH]1)N(C=O)C(CNc1ccc(C(=O)N[C@@H](CCC(=O)O)C(=O)O)cc1)CN2` (stereo partly specified), the T/C (endpoint: mean survival time, dose: 67.0 mg/kg/injection, schedule: Q01DX009 (sc), vehicle: other) is reported as 105 % of control, the T/C (endpoint: mean survival time, dose: 100.0 mg/kg/injection, schedule: Q01DX009 (sc), vehicle: other) is reported as 101 % of control and the T/C (endpoint: mean survival time, dose: 150.0 mg/kg/injection, schedule: Q01DX009 (sc), vehicle: other) is reported as 101 % of control. The T/C (endpoint: mean survival time, dose: 225.0 mg/kg/injection, schedule: Q01DX009 (sc), vehicle: other) was 108 % of control and the T/C (endpoint: mean survival time, dose: 338.0 mg/kg/injection, schedule: Q01DX009 (sc), vehicle: other) was 103 % of control.
